Results published in ChEMBL document CHEMBL1133690, “Discovery of a potent, orally bioavailable beta(3) adrenergic receptor agonist, (R)-N-[4-[2-[[2-hydroxy-2-(3-pyridinyl)ethyl]amino]ethyl]phenyl]-4-[4 -[4-(trifluoromethyl)phenyl]thiazol-2-yl]benzenesulfonamide” (J Med Chem, 2000).

Legend:
[1] = Half life was measured in dog; assay type: ADME, organism-based, Canis lupus familiaris; details: in vivo
[2] = Oral bioavailability in dog; assay type: ADME, organism-based, Canis lupus familiaris; details: in vivo
[3] = Oral bioavailability in rat (dose 10 mg/kg p.o. and 3 mg/kg i.v.); assay type: ADME, organism-based; details: in vivo
[4] = Area under curve determined in dogs after intravenous administration of 3 mg/kg; assay type: ADME, organism-based, Canis lupus familiaris; design: dose 3 mg/kg, route intravenous; details: dog, in vivo
[5] = Area under curve determined in dogs after oral administration of 10 mg/kg; assay type: ADME, organism-based, Canis lupus familiaris; design: dose 10 mg/kg, route oral; details: dog, in vivo
[6] = Volume distribution (Vdss) was measured in dog; assay type: ADME, organism-based, Canis lupus familiaris; details: in vivo, read-out: Vdss
[7] = Plasma clearance was measured in dog; assay type: ADME, organism-based, Canis lupus familiaris; details: read-out: Clp
[8] = target: T1, Beta-3 adrenergic receptor (Homo sapiens, UniProt P13945); assay type: cell-based, CHO
Target sequence in this assay (P13945 whole entry): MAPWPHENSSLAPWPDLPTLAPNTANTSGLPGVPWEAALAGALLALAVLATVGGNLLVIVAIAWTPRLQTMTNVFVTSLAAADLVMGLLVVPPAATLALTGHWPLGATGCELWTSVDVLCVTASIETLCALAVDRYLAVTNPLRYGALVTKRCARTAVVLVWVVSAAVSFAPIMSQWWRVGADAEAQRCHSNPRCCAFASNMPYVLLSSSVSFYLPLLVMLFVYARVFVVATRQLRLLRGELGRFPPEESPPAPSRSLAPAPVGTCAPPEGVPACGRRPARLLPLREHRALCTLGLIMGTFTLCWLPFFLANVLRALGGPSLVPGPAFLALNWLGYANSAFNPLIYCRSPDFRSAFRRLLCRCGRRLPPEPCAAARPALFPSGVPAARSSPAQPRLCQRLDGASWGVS

[9] = test system: Monkey; experiment: Effective dose for hyperglycerolemia producing increase in serum glycerol accompained by tachycardia in anesthetized rhesus monkeys; assay type: functional; details: Cercopithecidae, in Macaca mulatta
[10] = target: T1, Beta-3 adrenergic receptor; experiment: Agonistic efficacy at human beta 3 adrenergic receptor as percent adenylyl cyclase activation relative to isoproterenol; assay type: functional
Target sequence in this assay (P13945 whole entry, looked up): as the sequence (P13945 whole entry) above

[11] = target: T2, Beta-1 adrenergic receptor (Homo sapiens, UniProt P08588); experiment: In vitro functional efficacy in stimulating increase in cAMP in chinese hamster ovary (CHO) cells expressing the cloned human beta-1 receptor.; assay type: cell-based
Target sequence in this assay (P08588 whole entry): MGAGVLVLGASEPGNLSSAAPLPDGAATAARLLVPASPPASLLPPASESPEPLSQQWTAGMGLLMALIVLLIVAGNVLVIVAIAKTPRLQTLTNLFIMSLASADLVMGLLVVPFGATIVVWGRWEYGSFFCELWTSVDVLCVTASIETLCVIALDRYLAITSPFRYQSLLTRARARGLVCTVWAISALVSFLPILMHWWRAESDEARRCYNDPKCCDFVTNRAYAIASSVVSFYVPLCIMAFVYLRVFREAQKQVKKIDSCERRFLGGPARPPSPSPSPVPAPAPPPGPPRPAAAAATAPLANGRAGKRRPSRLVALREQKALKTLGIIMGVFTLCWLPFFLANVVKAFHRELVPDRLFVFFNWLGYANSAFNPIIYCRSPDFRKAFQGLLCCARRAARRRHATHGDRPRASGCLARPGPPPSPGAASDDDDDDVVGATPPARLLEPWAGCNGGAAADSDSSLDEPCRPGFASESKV

[12] = target: T2, Beta-1 adrenergic receptor; experiment: Agonistic efficacy at human beta 1 adrenergic receptor was assessed from adenylyl cyclase activation given as % of the maximum stimulation with isoproterenol at 10 uM; assay type: functional
Target sequence in this assay (P08588 whole entry, looked up): as the sequence (P08588 whole entry) above

[13] = target: T3, Beta-2 adrenergic receptor (Homo sapiens, UniProt P07550); experiment: In vitro functional efficacy in stimulating increase in cAMP in chinese hamster ovary (CHO) cells expressing the cloned human beta-2 receptor.; assay type: cell-based
Target sequence in this assay (P07550 whole entry): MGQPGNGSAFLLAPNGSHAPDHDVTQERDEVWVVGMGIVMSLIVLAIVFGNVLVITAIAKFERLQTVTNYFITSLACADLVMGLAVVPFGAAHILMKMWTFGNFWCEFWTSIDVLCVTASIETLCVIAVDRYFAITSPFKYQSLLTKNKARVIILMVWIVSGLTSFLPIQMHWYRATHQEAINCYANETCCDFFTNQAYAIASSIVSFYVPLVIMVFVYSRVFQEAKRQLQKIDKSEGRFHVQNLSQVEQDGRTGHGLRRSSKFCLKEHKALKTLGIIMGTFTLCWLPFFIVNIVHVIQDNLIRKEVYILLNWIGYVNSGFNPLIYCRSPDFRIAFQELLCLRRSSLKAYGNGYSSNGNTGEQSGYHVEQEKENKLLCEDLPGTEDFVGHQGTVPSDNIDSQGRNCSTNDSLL

[14] = target: T1, Beta-3 adrenergic receptor; experiment: In vitro functional efficacy as increased cAMP in chinese hamster ovary (CHO) cells expressing human beta-3 receptor; assay type: cell-based
Target sequence in this assay (P13945 whole entry): as the sequence (P13945 whole entry) above

[15] = target: T3, Beta-2 adrenergic receptor; experiment: biochemical
Target sequence in this assay (P07550 whole entry): as the sequence (P07550 whole entry) above
Description: Binding affinity was evaluated on chinese hamster ovary (CHO) cells expressing the cloned human beta-2 adrenergic receptor in the presence of [125I]- iodocyanopindolol.

[16] = target: T2, Beta-1 adrenergic receptor; experiment: biochemical
Target sequence in this assay (P08588 whole entry): as the sequence (P08588 whole entry) above
Description: Binding affinity was evaluated on chinese hamster ovary (CHO) cells expressing the cloned human beta-1 adrenergic receptor in the presence of [125I]- iodocyanopindolol.

[17] = Volume of distribution (Vdss) was measured in dog; assay type: ADME, organism-based, Canis lupus familiaris; details: in vivo, read-out: Vdss
[18] = target: T3, Beta-2 adrenergic receptor; experiment: Agonistic efficacy at human beta 2 adrenergic receptor was assessed from adenylyl cyclase activation given as % of the maximum stimulation with isoproterenol; assay type: functional
Target sequence in this assay (P07550 whole entry, looked up): as the sequence (P07550 whole entry) above

Structure (SMILES)	half-life [1]	bioavailability [2]	bioavailability [3]	AUC [4]	AUC [5]	Vd [6]	clearance [7]	IC50 [8]	ED50 [9]	ACT [10]	EC50 [11]	ACT [12]	EC50 [13]	EC50 [14]	IC50 [15]	IC50 [16]	Vd [17]	ACT [18]
O=S(=O)(Nc1ccc(CCNC[C@H](O)c2cccnc2)cc1)c1ccc(-c2nc(-c3ccc(C(F)(F)F)cc3)cs2)cc1	13.5 h	38%	17%	1930 ng·h/mL	2270 ng·h/mL	31.3 L/kg	26.8 mL/min/kg	46 nM	0.26 mg/kg	94%	4800 nM	24%	2400 nM					
O=S(=O)(Nc1ccc(CCNC[C@H](O)c2cccnc2)cc1)c1ccc(-c2nc(-c3ccccc3C(F)(F)F)cs2)cc1										82%				53 nM	1800 nM	1900 nM		
O=S(=O)(Nc1ccc(CCNC[C@H](O)c2cccnc2)cc1)c1ccc(-c2nc(-c3ccc(F)cc3F)cs2)cc1										87%		7%		19 nM	2600 nM	2500 nM		
O=S(=O)(Nc1ccc(CCNC[C@H](O)c2cccnc2)cc1)c1ccc(-c2nc(-c3cccc(F)c3F)cs2)cc1										99%		6%		7.6 nM	760 nM	2600 nM		
O=S(=O)(Nc1ccc(CCNC[C@H](O)c2cccnc2)cc1)c1ccc(-c2nc(-c3cccc(C(F)(F)F)c3)cs2)cc1										100%		17%		6.9 nM	980 nM	1800 nM		
O=S(=O)(Nc1ccc(CCNC[C@H](O)c2cccnc2)cc1)c1ccc(-c2nc(-c3cc(F)c(F)c(F)c3)cs2)cc1	8 h	27%		2470 ng·h/mL	2230 ng·h/mL	14.1 L/kg	20.5 mL/min/kg			100%		20%		6.3 nM	5000 nM	2000 nM		
O=S(=O)(Nc1ccc(CCNC[C@H](O)c2cccnc2)cc1)c1ccc(-c2nc(-c3ccc(F)c(F)c3)cs2)cc1	7.5 h	36%		1720 ng·h/mL	2070 ng·h/mL		29.3 mL/min/kg	20 nM		92%	2600 nM		1800 nM	7.1 nM	1700 nM	1700 nM	19 L/kg	12%
O=S(=O)(Nc1ccc(CCNC[C@H](O)c2cccnc2)cc1)c1ccc(-c2nc(-c3ccc(OC(F)(F)F)cc3)cs2)cc1	10.3 h	53%	7%	3530 ng·h/mL	6280 ng·h/mL	12.8 L/kg	14.3 mL/min/kg	30 nM	0.14 mg/kg	93%	2700 nM	24%	1400 nM	4.3 nM	1200 nM	8400 nM		18%
